Test results: paper PMC5527305, “Prevention of Ophthalmia Neonatorum Caused by Neisseria gonorrhoeae Using a Fatty Acid-Based Formulation” (mBio, 2017)
Converted amounts (≈) assume the structure as drawn.

How the values were obtained:
[1] = system: N. gonorrhoeae strain NCCP11945; test: Log reduction assay in GC broth, 2-min exposure; assay type: cell-based, Neisseria gonorrhoeae; conditions: for log reduction at 1000 µM: Neisseria gonorrhoeae, NCCP11945, 2 min, 1 mM, read-out: Log reduction at 1 mM (calculated log reduction in viable bacteria)
Description: (§1) To find potential candidates, 37 organic acids, esters, and salts were tested in a two-tiered screening process. These candidates were chosen based on the carbon chain lengths of the fatty acids, the presence or absence of saturation, and modifications to represent a diverse selection of organic acid candidates. The first screen aimed to determine the ability of each compound to inhibit the growth of N. gonorrhoeae strain NCCP11945 at 1 mM in GC solid media (Table 1). This strain was chosen due to its relatively recent isolation, its antibiotic resistance profile, and the availability of a complete genome sequence. Those candidates able to inhibit the growth of N. gonorrhoeae strain NCCP11945 were investigated in a second assay. The second assay tested the ability of each compound to cause at least a 4-log reduction in viable bacteria at 1 mM with a 2-min exposure time (Table 1).
(§2) Log reductions were done as described by Bergsson and coworkers ([18]). Briefly, cells were suspended in GC broth (18 g/liter GC base [Oxoid, Limited] with added defined supplements) to an optical density at 520 nm of 0.3, which is approximately equivalent to 10^7 to 10^8 cells per ml ([38]). […] The contents of the tubes were then mixed at room temperature for 2 min and immediately diluted in a 10-fold dilution series to 10^−4. The dilutions were plated by spreading 10 µl on a quarter of a plate; a 100-µl neat solution was also plated. Plates were then incubated at 37°C for 48 h, with all samples plated in duplicate. […] Additional testing at lower concentrations was also done on the eight clinical isolates of European origin.

[2] = system: nine gonococcal isolates (strain NCCP11945 and eight isolates from Public Health England); test: Minimum bactericidal concentration by log reduction against nine gonococcal isolates; assay type: cell-based, Neisseria gonorrhoeae; conditions: 2 min; for Killing of all gonococcal cells for all isolates: 1 mM; for MBC: Neisseria gonorrhoeae, lowest concentration giving mean log reduction above 4 from a 2-min exposure, read-out: MBC
Source text: The seven candidates were further tested against nine gonococcal isolates, including strain NCCP11945 and eight isolates from Public Health England, to find their minimal bactericidal concentration (MBC). This was defined as the lowest concentration tested to give an average 4-log10 reduction in bacterial count after a 2-min exposure. […] Any candidate that killed all gonococcal cells in the cell suspension was given a log reduction score of six.
(§3) The well-characterized N. gonorrhoeae NCCP11945 strain ([36]) was used in the screening stage. Eight isolates obtained from Public Health England, representing circulating isolates from various European locations, were used in the log reduction assays. All isolates were cultured for 24 h prior to testing by plating on GC solid medium (Oxoid Limited, Hampshire, United Kingdom) with Kellogg supplements and incubation at 37°C and 5% CO2 ([37]).
as §2

[3] = system: gonococcal cells (isolate NCCP 11945); test: Log reduction in artificial tear fluid with or without calcium chloride; assay type: cell-based, Neisseria gonorrhoeae; conditions: calcium 1 mM; Fig. 2
Description: The antigonococcal properties of the seven selected fatty acids were tested in artificial tear fluid, which contained calcium chloride. The addition of 1 mM lauric acid, tridecanoic acid, or sodium dodecanoate gave no reduction in bacterial cell number after exposure, in contrast to the results seen when they were tested in culture medium (Fig. 2). […] This was most likely due to the negative effect of calcium on the aqueous solubility of these candidates.
Artificial tear fluid was made as described by Mirejovsky and others ([39]) with or without calcium chloride. […] As with the previous log reductions, 10^7 gonococcal cells (isolate NCCP 11945) were suspended in GC broth. The cell suspension was centrifuged to remove the culture medium, and the bacteria were resuspended in the tear fluid. This was then added to the concentrated organic acid candidates. The cells were then enumerated again after 2 min of exposure to estimate any reduction in cell number due to the exposure to the organic acid.

[4] = system: N. gonorrhoeae strain NCCP11945; test: Growth inhibition screen on GC solid media containing 1 mM candidate; assay type: cell-based, Neisseria gonorrhoeae; conditions: 1 mM candidate in GC agar media; Yes = strain NCCP11945 did not grow
Description: as §1, §3

C. trachomatis = system: C. trachomatis; set-up: method as in PMID 9736551; conditions: cited from earlier work
chorioallantoic membrane = test: Hen's egg test-chorioallantoic membrane (HET-CAM); set-up: species or system white leghorn eggs
Description: The samples were all tested on the HET-CAM at 1 mg/ml, providing a range of 3.6 mM for linolenic acid to 5 mM for lauric acid. […] Results from the controls and an example of a tested candidate are illustrated in Fig. 5.
The HET-CAM was performed as described by Alany and coworkers ([20]). Fertilized white leghorn eggs (Henry Stewart and Co. Ltd., Fakenham, Norfolk, United Kingdom) were checked for damage and incubated at 37°C with 60% to 70% relative humidity. At day 4, the eggs were removed from their shells and placed in incubation chambers. At day 9, the CAMs were tested. This was done by applying 200 µl of the testing material and monitoring inflammatory responses at 30, 120, and 300 s. At each of these time points, the conjunctival irritation potential of the test substance on the CAMs was evaluated by assessing them against the published scoring system ([20]).

bovine cornea = test: Bovine corneal opacity and permeability (BCOP) test
Description: Bovine eyes were collected from a local slaughter house (ABP, Guildford, Surrey, United Kingdom) and were transported in cold saline solution for testing at the laboratory. Each eye was first visually examined for signs of damage before use. The test was conducted as detailed by Abdelkader and coworkers ([21]). The exposure time of the test substances was 30 s. The selected bactericidal compounds were tested at 1 mM in saline solution, with a corresponding vehicle control (1% ethanol–saline solution) also performed. […] The test area of the cornea was then washed with 10 ml saline solution. Corneal damage to the test area was assessed by fluorescein staining and examination under a cobalt blue filter. Pathological scoring based on opacity, epithelial integrity, and epithelial detachment was done in accordance with previous publications ([19]). Each of the seven lead candidates was tested in triplicate, and each test was performed on a separate day using a different batch of eyeballs. Corneal histology was done as outlined by Abdelkader and coworkers ([21]) by evaluating the damage to the epithelial layer and stroma of the cornea after hematoxylin and eosin staining.

S. aureus = system: S. aureus; set-up: method as in PMID 22808139; conditions: continuous passage on sublethal concentrations for a year; cited from earlier work
bovine RBCs = test: Red blood cell (RBC) lysis assay; assay type: cell-based; conditions: H50 = concentration to lyse 50% of RBCs; MBC from Table 1
Description: Whole bovine blood was obtained from a local slaughter house (ABP), adding 90 ml blood to 10 ml 110 mM trisodium citrate anticoagulant. RBCs were isolated the same day. The RBCs were washed by three repeats of centrifugation (1,500 × g for 10 min) and resuspension in phosphate-buffered saline (PBS) with 10 mM glucose (PBSG). Testing was done following the guidelines of the European Union Reference Laboratory for alternatives to animal testing (EURL-ECVAM) ([22]). The organic acids were solubilized in dimethyl sulfoxide (DMSO) and diluted to a maximum DMSO concentration of 10%. In a 2-ml centrifuge tube, 750 µl of the sample was added to 250 µl RBCs. Controls used in the assay were a complete lysis control (deionized water) and a fragility control (PBSG–10% DMSO). Samples were shaken at room temperature for 1 h and then centrifuged at 14,000 × g for 2 min. An aliquot of 750 µl of the supernatant was taken and its absorbance at 451 nm measured.

[5] = maximum score 6 = all cells killed

Structure (SMILES) | Log reduction at 1 mM: at least a 4-log reduction in viable bacteria (Yes/No) [1] | log reduction at 1000 µM [1, 5] | Killing of all gonococcal cells for all isolates [2] | MBC [2] [µM] | Growth inhibition [4] | HET-CAM irritancy / reaction at site of application (chorioallantoic membrane) | further results
CCCC/C=C\CCCCCCCC(=O)O [Myristoleic acid] | Yes | > 6 | killed all gonococcal cells for all isolates | 500 (≈ 113 µg/mL) | Yes | – | Effect of calcium in artificial tear fluid on antimicrobial effect [3]: unaffected; Activity against C. trachomatis (C. trachomatis): ineffective
CC(C)=O [Acetone, acetone] | – | – | – | – | – | Medium Irritant | –
[Na+].[OH-] [Sodium Hydroxide, sodium hydroxide, reference compound] | – | – | – | – | – | Strong Irritant | Corneal opacity, fluorescein staining and histology of epithelial layer (bovine cornea; Fig. 4): complete detachment
CCCCCCCCCCCC(=O)OCC(O)CO (centres unmarked) [Monolaurin] | No | – | – | – | Yes | – | Log reduction at 1 mM (calculated log reduction in viable bacteria) [1, 5]: 3.4 log10; Development of antimicrobial resistance (S. aureus): did not develop
CC/C=C\C/C=C\C/C=C\CCCCCCCC(=O)O [Linolenic acid] | Yes | > 6 | did not | 500 (≈ 139 µg/mL) | Yes | – | Mean cumulative BCOP score (bovine cornea; 1 mM in saline solution, 30 s exposure, triplicate): lower than 0.5; Fluorescein staining of cornea (bovine cornea; 1 mM, around rubber application ring): any sign of fluorescein staining; BCOP irritancy classification (bovine cornea; candidates 1 mM in saline, controls 0.5 M NaOH, 100% acetone, 30 s exposure): nonirritants; H50 concentration relative to MBC (bovine RBCs): lower than their minimum bactericidal concentration
